Each structure is given as a SMILES string.

Holding throughout (test): Bliss excess, mean over the matrix (fraction); higher = more synergy
In test [1] the test system is CADO-ES1 (Ewing's Sarcoma). An outline of the steps:
(§1)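 Cell lines in DMEM/F12 or RPMI with 10% FBS were plated in 1536-well plates, held 24 hours at 37°C, 5% CO2, then given two-drug dose matrices for 72 hours (DMSO typically 0.2%). Viability was read by CellTiter-Glo 2.0 luminescence and scaled as inhibition from 0 (vehicle wells) to 1 (blank wells). Combination Emax is the second-highest inhibition in the matrix; Bliss excess is observed combination effect minus expected EA + EB − EA·EB, EA and EB being single-agent effects.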

Test [2] has as its system NCI-H1838 (Lung Adenocarcinoma). In outline:
as §1

For test [3], the system named is OACM5-1 (Esophageal Adenocarcinoma). An outline of the steps:
as §1

Test [4] concerns NCI-H1092 (Small Cell Lung Carcinoma). An outline of the steps:
as §1

Consider `CN(CCO)CC[C@H](CSc1ccccc1)Nc1ccc(S(=O)(=O)NC(=O)c2ccc(N3CCC([C@@H](O)c4ccccc4-c4ccc(Cl)cc4)CC3)cc2)cc1S(=O)(=O)C(F)(F)F` [AZD4320] + C1CN(CCC1(C(=O)N[C@@H](CCO)C2=CC=C(C=C2)Cl)N)C3=NC=NC4=C3C=CN4 [Capivasertib] (first compound max 1 µM, 7x7, partner max 3 µM), for which the Bliss excess in test [1] was -0.0387; in test [2] it was -0.0392; in test [3] it was -0.0272; in test [4] it was -0.0476.

Turning to `CN(CCO)CC[C@H](CSc1ccccc1)Nc1ccc(S(=O)(=O)NC(=O)c2ccc(N3CCC([C@@H](O)c4ccccc4-c4ccc(Cl)cc4)CC3)cc2)cc1S(=O)(=O)C(F)(F)F` [AZD4320] + CCN(CCO)CCCOc1ccc2c(Nc3cc(CC(=O)Nc4cccc(F)c4)[nH]n3)ncnc2c1 [AZD2811] (first compound max 1 µM, 7x7, partner max 1 µM), the Bliss excess was -0.0732 in test [1], 0.0003 in test [2], 0.0473 in test [3] and 0.0193 in test [4].

Regarding `CN(CCO)CC[C@H](CSc1ccccc1)Nc1ccc(S(=O)(=O)NC(=O)c2ccc(N3CCC([C@@H](O)c4ccccc4-c4ccc(Cl)cc4)CC3)cc2)cc1S(=O)(=O)C(F)(F)F` [AZD4320] + C[C@@H]1COCCN1C2=NC(=NC(=C2)C3(CC3)[S@](=N)(=O)C)C4=C5C=CNC5=NC=C4 [AZD6738] (first compound max 1 µM, 7x7, partner max 10 µM), the Bliss excess in test [1] is -0.0031; in test [2] it was -0.0445; in test [3], 0.0144; in test [4], -0.0167.

Turning to `CN(CCO)CC[C@H](CSc1ccccc1)Nc1ccc(S(=O)(=O)NC(=O)c2ccc(N3CCC([C@@H](O)c4ccccc4-c4ccc(Cl)cc4)CC3)cc2)cc1S(=O)(=O)C(F)(F)F` [AZD4320] + C[C@@H](Nc1cc(F)cc(F)c1)c1cc(C(=O)N(C)C)cc2c(=O)cc(N3CCOCC3)oc12 [AZD8186] (first compound max 1 µM, 7x7, partner max 3 µM), the Bliss excess was -0.0003 in test [1], 0.0139 in test [2], 0.0343 in test [3] and 0.0389 in test [4].

With `CN(CCO)CC[C@H](CSc1ccccc1)Nc1ccc(S(=O)(=O)NC(=O)c2ccc(N3CCC([C@@H](O)c4ccccc4-c4ccc(Cl)cc4)CC3)cc2)cc1S(=O)(=O)C(F)(F)F` [AZD4320] + Cc1cc2ncnn2cc1Nc1ncc2c(n1)n(C1CCOCC1)c(=O)n2C [AZD7648] (first compound max 1 µM, 7x7, partner max 10 µM), the Bliss excess in test [1] was -0.0361; in test [2] it was -0.0291; in test [3] it was -0.0545; in test [4], 0.005.

Turning to `CN(CCO)CC[C@H](CSc1ccccc1)Nc1ccc(S(=O)(=O)NC(=O)c2ccc(N3CCC([C@@H](O)c4ccccc4-c4ccc(Cl)cc4)CC3)cc2)cc1S(=O)(=O)C(F)(F)F` [AZD4320] + Cn1cnc2c(F)c(Nc3ccc(Br)cc3Cl)c(C(=O)NOCCO)cc21 [Selumetinib] (first compound max 1 µM, 7x7, partner max 3 µM), the Bliss excess in test [1] is -0.0085; in test [2], 0.0376; in test [3] it was 0.0624; in test [4], -0.0193.

`Cc1c2c(nn1C)CSCc1cc(n(C)n1)CSc1cc(c3ccccc3c1)OCCCc1c(C(=O)O)n(C)c3c-2c(Cl)ccc13` [AZD5991] + Cn1cnc2c(F)c(Nc3ccc(Br)cc3Cl)c(C(=O)NOCCO)cc21 [Selumetinib] (first compound max 1 µM, 7x7, partner max 3 µM): the Bliss excess in test [1] is -0.0208; in test [2], 0.003; in test [3], 0.0491; in test [4] it was -0.03.

For `Cc1cc2ncnn2cc1Nc1ncc2c(n1)n(C1CCOCC1)c(=O)n2C` [AZD7648] + C=CCn1c(=O)c2cnc(Nc3ccc(N4CCN(C)CC4)cc3)nc2n1-c1cccc(C(C)(C)O)n1 [AZD1775] (first compound max 10 µM, partner max 1 µM), the Bliss excess in test [1] is 0.0512; in test [2], -0.0149; in test [3], -0.0206; in test [4], -0.0873.

On to `Cc1cc2ncnn2cc1Nc1ncc2c(n1)n(C1CCOCC1)c(=O)n2C` [AZD7648] + CCN(CCO)CCCOc1ccc2c(Nc3cc(CC(=O)Nc4cccc(F)c4)[nH]n3)ncnc2c1 [AZD2811] (first compound max 10 µM, 7x7, partner max 1 µM), for which the Bliss excess in test [1] was 0.0236; in test [2], -0.0491; in test [3] it was -0.0151; in test [4], 0.0041.

As to `Cc1cc2ncnn2cc1Nc1ncc2c(n1)n(C1CCOCC1)c(=O)n2C` [AZD7648] + CN(C)CCCOc1ccc(-c2ccc3ncc4c(c3c2)n(C2CCOCC2)c(=O)n4C)cn1 [AZD0156] (first compound max 10 µM, 7x7, partner max 1 µM), the Bliss excess was 0.0465 in test [1], 0.0203 in test [2], 0.0206 in test [3] and -0.0312 in test [4].

Regarding `Cc1cc2ncnn2cc1Nc1ncc2c(n1)n(C1CCOCC1)c(=O)n2C` [AZD7648] + C[C@@H]1COCCN1C2=NC(=NC(=C2)C3(CC3)[S@](=N)(=O)C)C4=C5C=CNC5=NC=C4 [AZD6738] (first compound max 10 µM, 7x7, partner max 10 µM), the Bliss excess was 0.0364 in test [1], -0.0062 in test [2], 0.0198 in test [3] and 0.0073 in test [4].

`Cc1cc2ncnn2cc1Nc1ncc2c(n1)n(C1CCOCC1)c(=O)n2C` [AZD7648] + O=C(c1cc(Cc2n[nH]c(=O)c3ccccc23)ccc1F)N1CCN(C(=O)C2CC2)CC1 [Olaparib] (first compound max 10 µM, 7x7, partner max 10 µM): the Bliss excess in test [1] was 0.0086; in test [2], -0.0808; in test [3] it was -0.0505; in test [4], -0.025.

Turning to `Cc1nc(Nc2ncc(C(=O)Nc3c(C)cccc3Cl)s2)cc(N2CCN(CCO)CC2)n1` [Dasatinib] + CC(=O)Nc1cccc(-n2c(=O)n(C3CC3)c(=O)c3c(Nc4ccc(I)cc4F)n(C)c(=O)c(C)c32)c1 [Trametinib] (first compound max 2 µM, 7x7, partner max 1 µM), the Bliss excess is -0.0435 in test [1], -0.0793 in test [2], -0.0912 in test [3] and -0.0494 in test [4].

For `COc1cc2ncnc(Nc3ccc(F)c(Cl)c3)c2cc1OCCCN1CCOCC1` [Gefitinib] + CC(C)n1c(=O)n(C)c2cnc3cc(F)c(-c4ccc(OCCCN5CCCCC5)nc4)cc3c21 [AZD1390] (first compound max 10 µM, 7x7, partner max 0.3 µM), the Bliss excess in test [1] was -0.0634; in test [2] it was -0.103; in test [3], -0.112; in test [4] it was -0.0528.

In the case of `COc1cc2c(cc1OCCCCCOc1cc3c(cc1OC)C(=O)N1C=C(C)C[C@H]1C=N3)N=C[C@@H]1CC(C)=CN1C2=O` [SG3199] + O=C(c1cc(Cc2n[nH]c(=O)c3ccccc23)ccc1F)N1CCN(C(=O)C2CC2)CC1 [Olaparib] (first compound max 0.001 µM, 7x7, partner max 10 µM), the Bliss excess in test [1] was 0.0008; in test [2], -0.0795; in test [3], -0.0313; in test [4], -0.0165.

In the case of `C[C@@H](c1ccc2nccn2c1)n1nnc2ncc(-c3cnn(C)c3)nc21` [Savolitinib] + CC1(C)CCC(CN2CCN(c3ccc(C(=O)NS(=O)(=O)c4ccc(NCC5CCOCC5)c([N+](=O)[O-])c4)c(Oc4cnc5[nH]ccc5c4)c3)CC2)=C(c2ccc(Cl)cc2)C1 [Venetoclax] (first compound max 1 µM, 7x7, partner max 1 µM), the Bliss excess in test [1] was -0.0549; in test [2], -0.049; in test [3], -0.0637; in test [4], -0.0916.

As to `C[C@@H](c1ccc2nccn2c1)n1nnc2ncc(-c3cnn(C)c3)nc21` [Savolitinib] + Cc1c2c(nn1C)CSCc1cc(n(C)n1)CSc1cc(c3ccccc3c1)OCCCc1c(C(=O)O)n(C)c3c-2c(Cl)ccc13 [AZD5991] (first compound max 1 µM, 7x7, partner max 1 µM), the Bliss excess in test [1] is 0.0151; in test [2], 0.0218; in test [3], -0.0598; in test [4], -0.0875.

Values taken from the supplement of paper PMC11061612.
